In patent US20260226048A1, “MULTI-CYCLIC IRAK AND FLT3 INHIBITING COMPOUNDS AND USES THEREOF” (CHILDREN'S HOSPITAL MEDICAL CENTER, priority 2023, published 2026) one finds Kd data, which are given here for 7 molecules.

The structures appear in SMILES notation. Where only a bound is given, the exact number is not on record here.

What all share (settings): 11-point 3-fold dilution
One experiment deals with T1, FLT3 ITD (Homo sapiens, UniProt P36888).
T1 construct: fused on or other part: DNA tag for qPCR detection (kinase-tagged T7 phage, or made in HEK-293 cells and then tagged with DNA)
T1 sequence (P36888 1-993): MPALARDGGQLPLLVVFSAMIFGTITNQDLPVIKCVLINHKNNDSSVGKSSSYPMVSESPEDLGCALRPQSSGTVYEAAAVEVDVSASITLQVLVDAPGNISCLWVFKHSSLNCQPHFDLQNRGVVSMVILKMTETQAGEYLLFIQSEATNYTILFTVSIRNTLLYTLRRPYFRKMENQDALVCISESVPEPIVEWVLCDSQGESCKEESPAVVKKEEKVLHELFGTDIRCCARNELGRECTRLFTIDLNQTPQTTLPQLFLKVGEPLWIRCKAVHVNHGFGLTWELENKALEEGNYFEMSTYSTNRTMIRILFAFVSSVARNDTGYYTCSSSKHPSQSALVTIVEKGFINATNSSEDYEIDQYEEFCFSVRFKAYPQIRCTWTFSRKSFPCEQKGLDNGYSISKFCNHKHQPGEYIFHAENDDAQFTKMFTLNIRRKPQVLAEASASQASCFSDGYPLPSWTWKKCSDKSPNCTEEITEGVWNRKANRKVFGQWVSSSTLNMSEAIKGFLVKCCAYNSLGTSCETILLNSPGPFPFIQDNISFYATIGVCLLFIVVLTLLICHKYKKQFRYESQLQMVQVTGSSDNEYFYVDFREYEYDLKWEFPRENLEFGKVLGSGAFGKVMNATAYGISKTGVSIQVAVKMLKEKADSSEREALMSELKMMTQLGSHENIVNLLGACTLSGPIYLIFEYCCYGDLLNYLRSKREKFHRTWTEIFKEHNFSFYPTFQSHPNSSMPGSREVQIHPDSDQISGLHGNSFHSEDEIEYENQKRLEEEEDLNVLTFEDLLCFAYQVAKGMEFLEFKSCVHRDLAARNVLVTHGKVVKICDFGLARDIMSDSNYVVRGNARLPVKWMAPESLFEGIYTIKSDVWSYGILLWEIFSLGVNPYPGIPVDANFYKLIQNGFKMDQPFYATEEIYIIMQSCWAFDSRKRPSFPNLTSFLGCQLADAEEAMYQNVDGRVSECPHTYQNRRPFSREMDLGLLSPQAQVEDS
The experiment is described as follows: DiscoverX KINOMEscan competition binding assay, FLT3 ITD. The text has this: (§1) […]. […] As a result, the data report thermodynamic interaction affinities (Kd values), rather than IC50 values that are dependent on ATP concentrations. The assay uses a DNA-tagged version of the protein kinase, and an immobilized ligand bound to a solid support. Compounds that directly or indirectly prevent kinase binding to the immobilized ligand reduce the amount of kinase captured on the solid support, which is detected using an ultra-sensitive qPCR method. Affinity constants reported from the assay have been reported to be independent of the immobilized ligand used that is coupled to the solid support (See supplemental information in Fabian, M. A. et. al., (2005) Nat. Biotechnol. 23, 329-336; Wodicka, L. M. et. al., (2010) Chem. Biol. 17, 1241-1249.)
(§2) Kinase-tagged T7 phage strains were prepared in an E. coli host derived from the BL21 strain. E. coli were grown to log-phase and infected with T7 phage and incubated with shaking at 32° C. until lysis. The lysates were centrifuged and filtered to remove cell debris. The remaining kinases were produced in HEK-293 cells and subsequently tagged with DNA for qPCR detection. Streptavidin-coated magnetic beads were treated with biotinylated small molecule ligands for 30 minutes at room temperature to generate affinity resins for kinase assays. The liganded beads were blocked with excess biotin and washed with blocking buffer (SeaBlock (Pierce), 1% BSA, 0.05% Tween 20, 1 mM DTT) to remove unbound ligand and to reduce non-specific binding. […] Test compounds were prepared as 111× stocks in 100% DMSO. Kds were determined using an 11-point 3-fold compound dilution series with three DMSO control points. All compounds for Kd measurements are distributed by acoustic transfer (non-contact dispensing) in 100% DMSO. The compounds were then diluted directly into the assays such that the final concentration of DMSO was 0.9%. All reactions were performed in polypropylene 384-well plates. Each was a final volume of 0.02 mL. […] The kinase concentration in the eluates was measured by qPCR.
(§3) Binding constants (Kds) were calculated with a standard dose-response curve using the Hill equation. The Hill Slope was set to −1. Curves were fitted using a non-linear least square fit with the Levenberg-Marquardt algorithm.

For the next experiment, the target named is T2, IRAK1 (Homo sapiens, UniProt P51617).
T2 construct: purchased Reaction Biology (RBC HotSpot)
As to the kind of experiment: DiscoverX KINOMEscan competition binding assay, IRAK1.
Excerpt: as §1, §2, §3

In the next experiment the target is T3, FLT3 R834Q (Homo sapiens, UniProt P36888, R834Q).
T3 construct: purchased DiscoverX (KINOMEscan); host or cells: E. coli BL21-derived host (T7 phage) or HEK-293
T3 sequence (P36888 27-993 R834Q): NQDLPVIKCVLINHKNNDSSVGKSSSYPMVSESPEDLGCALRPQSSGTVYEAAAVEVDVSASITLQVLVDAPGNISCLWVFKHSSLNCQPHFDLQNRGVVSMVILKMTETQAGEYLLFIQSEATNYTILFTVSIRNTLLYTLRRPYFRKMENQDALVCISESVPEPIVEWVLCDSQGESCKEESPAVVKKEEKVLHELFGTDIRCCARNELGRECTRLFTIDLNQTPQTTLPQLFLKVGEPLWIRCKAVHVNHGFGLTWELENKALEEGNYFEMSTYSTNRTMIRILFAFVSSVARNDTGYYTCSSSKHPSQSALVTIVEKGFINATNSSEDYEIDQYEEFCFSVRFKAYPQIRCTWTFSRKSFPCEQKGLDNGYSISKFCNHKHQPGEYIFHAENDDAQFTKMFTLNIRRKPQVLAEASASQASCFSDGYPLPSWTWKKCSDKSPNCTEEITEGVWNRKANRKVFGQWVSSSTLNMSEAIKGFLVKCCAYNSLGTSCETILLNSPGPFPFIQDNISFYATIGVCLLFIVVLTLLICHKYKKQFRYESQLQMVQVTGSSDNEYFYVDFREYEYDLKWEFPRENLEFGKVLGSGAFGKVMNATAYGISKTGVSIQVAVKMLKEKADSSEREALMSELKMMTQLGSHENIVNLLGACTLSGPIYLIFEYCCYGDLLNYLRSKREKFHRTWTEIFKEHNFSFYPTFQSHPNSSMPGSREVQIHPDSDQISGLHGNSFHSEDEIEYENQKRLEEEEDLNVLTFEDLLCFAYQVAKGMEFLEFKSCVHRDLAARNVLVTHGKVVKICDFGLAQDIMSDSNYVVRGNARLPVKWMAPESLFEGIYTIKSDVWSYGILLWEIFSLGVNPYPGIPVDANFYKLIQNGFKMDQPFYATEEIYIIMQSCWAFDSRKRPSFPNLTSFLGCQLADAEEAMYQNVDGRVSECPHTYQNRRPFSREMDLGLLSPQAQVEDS
As to the kind of experiment: DiscoverX KINOMEscan competition binding assay, FLT3 R834Q.
Excerpt: as §1, §2, §3

T2 sequence (P51617 whole entry): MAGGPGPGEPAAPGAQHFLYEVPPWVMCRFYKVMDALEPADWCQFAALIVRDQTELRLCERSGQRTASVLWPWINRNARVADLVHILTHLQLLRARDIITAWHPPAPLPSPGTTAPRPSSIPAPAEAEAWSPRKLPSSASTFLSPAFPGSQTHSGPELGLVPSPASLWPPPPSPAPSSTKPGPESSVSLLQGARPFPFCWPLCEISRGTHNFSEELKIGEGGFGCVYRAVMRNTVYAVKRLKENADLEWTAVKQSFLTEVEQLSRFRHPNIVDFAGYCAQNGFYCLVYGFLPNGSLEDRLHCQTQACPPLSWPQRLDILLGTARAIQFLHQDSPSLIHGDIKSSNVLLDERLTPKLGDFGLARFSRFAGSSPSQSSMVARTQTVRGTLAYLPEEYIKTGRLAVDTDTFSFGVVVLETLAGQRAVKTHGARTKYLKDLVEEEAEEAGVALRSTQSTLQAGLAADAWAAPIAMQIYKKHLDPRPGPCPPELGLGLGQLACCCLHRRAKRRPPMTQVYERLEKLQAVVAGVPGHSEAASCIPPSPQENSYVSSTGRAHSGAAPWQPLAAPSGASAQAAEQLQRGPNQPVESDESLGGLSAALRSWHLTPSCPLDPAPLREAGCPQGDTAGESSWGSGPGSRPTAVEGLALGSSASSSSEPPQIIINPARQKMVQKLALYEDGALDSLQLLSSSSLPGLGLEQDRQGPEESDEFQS

Regarding `COc1cc2ncc(-c3nc(N[C@H]4CNCC[C@@H]4F)ncc3F)n2nc1C1CC1` [Compound 1a, 4-(6-cyclopropyl-7-methoxyimidazo[1,2-b]pyridazin-3-yl)-5-fluoro-N-((3S,4S)-4-fluoropiperidin-3-yl)pyrimidin-2-amine], the values for the Kd at FLT3 ITD, on IRAK1 and at FLT3 R834Q were 0.21 nM, < 0.17 nM and < 0.17 nM, respectively.
As to `FC(F)COc1cc2ncc(-c3ccnc(N[C@H]4CNCC[C@@H]4F)n3)n2nc1C1CC1` [Compound 4a, 4-(6-cyclopropyl-7-(2,2-difluoroethoxy)imidazo[1,2-b]pyridazin-3-yl)-N-((3 S,4S)-4-fluoropiperidin-3-yl)pyrimidin-2-amine], the Kd worked out at 1.7 nM at FLT3 ITD, 7.8 nM at IRAK1 and 0.69 nM on FLT3 R834Q.
The corresponding values for `COc1cc2ncc(-c3nc(N[C@H]4CNCC[C@@H]4F)ncc3F)n2nc1C(C)(C)O` [Compound 45a, 2-(3-(5-fluoro-2-(((3S,4S)-4-fluoropiperidin-3-yl)amino)pyrimidin-4-yl)-7-methoxyimidazo[1,2-b]pyridazin-6-yl)propan-2-ol] are < 0.17 nM, 1.6 nM and 5.9 nM.
For `CC(C)(O)c1ccc2ncc(-c3nc(N[C@H]4CNCC[C@@H]4F)ncc3F)n2c1` [Compound 46a, 2-(3-(5-fluoro-2-(((3S,4S)-4-fluoropiperidin-3-yl)amino)pyrimidin-4-yl)imidazo[1,2-a]pyridin-6-yl)propan-2-ol] the same measures were 0.19 nM, 0.7 nM and 4.4 nM.
For `COc1cc2ncc(-c3nc(N[C@H]4CNCC[C@@H]4F)ncc3F)n2nc1C1COC1` [Compound 92a, 5-fluoro-N-((3S,4S)-4-fluoropiperidin-3-yl)-4-(7-methoxy-6-(oxetan-3-yl)imidazo[1,2-b]pyridazin-3-yl)pyrimidin-2-amine] the same measures were 0.21 nM, 0.49 nM and 0.77 nM.
Regarding `CC(C)(O)c1cn2c(-c3nc(N[C@H]4CNCC[C@@H]4F)ncc3F)cnc2cn1` [Compound 100a, 2-(3-(5-fluoro-2-(((3S,4S)-4-fluoropiperidin-3-yl)amino)pyrimidin-4-yl)imidazo[1,2-a]pyrazin-6-yl)propan-2-ol], the Kd at FLT3 ITD was found to be 2.7 nM; on IRAK1, 4.5 nM; at FLT3 R834Q, 40 nM.
For `COc1cc2ncc(-c3nc(N[C@H]4CNCC[C@@H]4F)ncc3F)n2nc1N1CCCS1(=O)=O` [Compound 112a, 2-(3-(5-fluoro-2-(((3S,4S)-4-fluoropiperidin-3-yl)amino)pyrimidin-4-yl)-7-methoxyimidazo[1,2-b]pyridazin-6-yl)isothiazolidine 1,1-dioxide] the same measures were 0.2 nM, 1.1 nM and 0.28 nM.

What is called Kd is the concentration at which binding is half-saturated.
